“Also recorded” adds a separate entry of the source.
Columns and labels:
[1] = system: pp28 luciferase-recombinant Towne HCMV; experiment: pp28-luciferase Towne HCMV replication assay in HFFs; type: cell-based, human cytomegalovirus; conditions: for Selectivity index (SI): CC50/EC50; for EC50: Human betaherpesvirus 5
Procedure: (§1) Six ozonizes have been tested for inhibition of HCMV replication and toxicity in human foreskin fibroblasts (Table 1, FIG. 1). The pp28 luciferase-recombinant Towne was used to measure HCMV replication, and an MTT assay—for cell viability. […] (FIG. 1).
(§2) The pp28-luciferase Towne CMV strain was constructed as previously described (31). The recombinant virus expresses luciferase under the control of UL99 (pp28) late promoter 48-72 h post infection (hpi). […] Luciferase activity highly correlates with plaque reduction assay. The Towne CMV (ATCC VR-977) and TB40 strains (ATCC VR-1578) were used for plaque reduction, DNA replication, and cell cycle assays.
HFFs passage 12-16 (ATCC, CRL-2088) were grown in Dulbecco's Modified Eagle Medium (DMEM) containing 10% fetal bovine serum (FBS) (Gibco, Carlsbad, Calif.) in a 5% CO2 incubator at 37° C. and used for infection with pp28-luciferase Towne CMV. HCT116 (Human Colorectal Carcinoma) (ATCC, CCL-247) cells were maintained in DMEM containing 10% fetal bovine serum.
(§3) To determine the effect of cell density/cycling on the anti-HCMV activity of ozonides, HFFs were plated at 0.5×10^6, 1×10^6, 2×10^6 or 3×10^6 cells/96 well-plate 24 h prior to infection. Infection was carried out at multiplicity of infection of 1 PFU/cell (MOI=1). Following 90 minute adsorption, media containing virus was removed and replaced by DMEM with 4% FBS (Gibco) containing anti-viral compounds. Infected treated HFFs were collected at 72 hpi and pp28 activity was quantified by a Luciferase Assay Kit (Promega, Madison, Wis.) on GloMaxH-Multi+ Detection System (Promega) according to manufacturer's instructions.

MTT cell viability assay = type: cell-based; conditions: human foreskin fibroblasts
Procedure: Six ozonizes have been tested for inhibition of HCMV replication and toxicity in human foreskin fibroblasts (Table 1, FIG. 1). The pp28 luciferase-recombinant Towne was used to measure HCMV replication, and an MTT assay—for cell viability.
Cells were seeded in 96-well plates, treated with various concentrations of ozonides and incubated at 37° C. for 3 days. Cell viability was determined by an MTT-based colorimetric assay (Sigma-Aldrich), and performed at the same time points as the antiviral assay.

[2] = system: HCMV in high density and low density HFFs; conditions: Roy S., 2015; cited from earlier work
pp28-luciferase HCMV = experiment: Add-on and removal experiments; type: cell-based, human cytomegalovirus; conditions: luciferase at 72 hpi
Procedure: HFFs were infected with the pp28-luciferase HCMV as described above. At 0, 6, 12, 24, 36 and 48 hpi, the media were replaced by the media containing OZ418 or GCV. For time-of-removal studies, media containing the compounds were removed at 0, 6, 12, 24, 36 and 48 hpi, cells were then washed three times with PBS, and drug-free medium was added. The cells were incubated at 37° C., and luciferase assays were carried out at 72 hpi.

non-infected HFFs [3] = conditions: literature report; cited from earlier work
[4] = system: pp28-luciferase Towne CMV strain; experiment: Drug combination with GCV (Bliss model); type: cell-based, human cytomegalovirus; conditions: FIGS. 4D and E
Procedure: Drug combinations were performed as previously reported (33). Briefly, 2×10^6 HFFs were seeded in a 96-well plate and infected with the pp28-luciferase Towne CMV strain at MOI=1. First, a dose response curve was generated for each drug individually to determine its EC50. […] Luciferase activity of the combination and each drug individually was quantified at 72 hpi. The Bliss model was used to calculate the effect of each drug combination on pp28-luciferase activity. In this model, drug combination represents the product of two probabilistically independent events as described in the following equation (23):
[formula] Where D is the drug concentration, m is the slope, and EC50 is the effective concentration resulting in 50% virus inhibition. The combined effect of two inhibitors (FU, fractional unaffected) is computed as the product of individual effects of the two inhibitors, FU1 and FU2. If the ratio of observed fold inhibition divided by the expected fold inhibition is greater than 1, the compounds are synergistic. If the ratio is less than 1, the combination is considered antagonistic, and if it equals to 1 the combination is additive.

[5] = system: pp28 luciferase-recombinant Towne HCMV; conditions: in the presence of viral DNA polymerase inhibitors; previously described; cited from earlier work
[6] = system: CDK 1, 2, 4, pRb and E2F1 expression; experiment: Immunoblot of CDKs, pRb and E2F1, HCMV-infected HFFs; type: cell-based, human
Procedure: (§4) Cell lysates were quantified for total protein content using Pierce bicinchoninic acid (BCA) protein assay kit (Thermo-Fisher Scientific, Waltham, Mass.). Equivalent amounts of protein were mixed with an equal volume of sample buffer (125 mM Tris-HCl [pH 6.8], 4% SDS 20% glycerol, 5% β-mercaptoethanol) and boiled at 100° C. for 10 min. Denatured proteins were resolved in Tris-glycine polyacrylamide gels (10% to 12%) and transferred to polyvinylidene difluoride membranes (Bio-Rad Laboratories, Hercules, Calif.) by electroblotting. Membranes were incubated in blocking solution (5% nonfat dry milk/BSA and 0.1% Tween 20 in PBS [PBST]) for 1 h, washed three times with PBST, and incubated primary antibodies diluted in 5% milk or BSA (for pRb) at 4° C. overnight. The membranes were washed with PBST, followed by incubation with horseradish peroxidase (HRP)-conjugated secondary antibodies in 5% milk/BSA for 1 h at room temperature. After three washing steps with PBST, protein bands were visualized by chemiluminescence using SuperSignal West Pico reagent (Pierce Chemical, Rockford, Ill.). […]

GCV-resistant CMV strain = experiment: Inhibition of GCV-resistant HCMV; type: cell-based, human cytomegalovirus; conditions: FIG. 3
Source text: FIG. 3A-3D illustrates activity of OZ418 against a GCV-resistant CMV strain. A. Dose response. B. Luciferase. C. HCMV proteins IE1/2, UL44, and pp65 detection. D. Plaque reduction assay.
A GCV-resistant strain was inhibited by OZ418 (FIG. 3).

HCMV TB40 strain = experiment: Plaque reduction assay in HFFs; type: cell-based, human cytomegalovirus; conditions: Human betaherpesvirus 5, read-out: EC50 in plaque reduction assay
Procedure: as §1, §2
A plaque reduction assay was performed in HFFs. One day prior to infection, HFFs were seeded at 3×10^6 cells/24-well plate. The Towne CMV strain was diluted in DMEM to a desired titer which gave approximately 50 plaques/well and added to each well in quadruplicates. Plates were incubated for 90 minutes with shaking every 10 min; thereafter compounds were added and replenished every 3 days. After a 10-day incubation, cells were stained with crystal violet and plaques were counted at 40× magnification.

[7] = system: CDKs, pRB and E2F1 expression; experiment: Immunoblot of CDKs, pRb and E2F1, non-infected HFFs; type: cell-based, human
Procedure: as §4

HCMV entry = HCMV entry assay; type: cell-based; conditions: FIG. 4A
Procedure: To determine the time during HCMV replication that OZ418 was active an entry assay was performed (FIG. 4A).

MCMV = experiment: Inhibition of mouse CMV replication in BALB/c mice; type: in vivo
Procedure: For infection experiments BALB/c mice, 4-6 week old, were purchased from Harlan Laboratories (Indianapolis, Ind.). The Animal Care and Use Committee of Johns Hopkins University approved the experimental procedures. After 2-3 days of adaptation to the housing environment, mice were randomly divided into several groups as follows: control, infected, infected+OZ418 1 mg/kg, 3 mg/kg or 10 mg/kg orally once daily, infected+AS 10 mg/kg orally twice daily, infected+GCV 10 mg/kg intraperitoneally twice daily. Mice were infected intraperitoneally with 10^6 PFU/mice (0.1 mL in […] saline) and all treatments were started at 24 hpi. Control mice received 0.1 ml of saline intraperitoneally. Control and infected mice received equivalent volumes of saline. Mice were sacrificed at day 14 after infection. Salivary glands, liver and spleen were harvested and stored at −80° C. Organs were homogenized in DMEM with 4% FBS at a final concentration of 100 mg/mL. Two million MEFs were seeded into 24-well plates. From each sample, 5% of the salivary gland homogenate or 10% of the liver homogenate was used for infection of MEFs in triplicates. Plaques were counted after three days.

HCMV-infected HFFs = experiment: Cell cycle progression by flow cytometry, HCMV-infected HFFs; type: cell-based, human; conditions: HCMV-infected cells, 30 μM, 24 h and 72 h
Procedure: (§5) To identify the cell cycle stage affected by OZ418, non-infected HFFs were serum starved for 72 h and then released in DMEM with 0% FBS (control for G0 arrest), 10% FBS (control for cell cycle progression), or 10% FBS plus OZ418 (30 μM), AS (30 μM), or GCV (30 μM) for 24 h and 72 h, respectively. To determine the effects of OZ418 on cell cycle progression in infected HFFs, 1.0×10^6 cells were serum starved for 72 h, and then infected with HCMV Towne strain (MOI=1) followed by treatment with OZ418 (30 μM), AS (30 μM), or GCV (5 μM) for 24 h and 72 h, respectively. The cells were collected by treatment with trypsin and then washed with PBS. The collected cells were fixed in 5 ml of cold 70% ethanol overnight at 4° C. and resuspended in […] of staining buffer (50 μg/ml propidium iodide [Sigma-Aldrich] and 0.2 mg/ml RNase A in PBS) for 45 min at 37° C. in 5% CO2. The samples were analyzed on an LSR II flow cytometer (BD Biosciences, San Jose, Calif.), and at least 10,000 cells were counted for each sample. Data analysis was performed using FlowJo software (Tree Star, USA). The percentage of cells in G1/S/G2-M is shown in each condition.

non-infected HFFs [8] = experiment: Cell cycle progression by flow cytometry, non-infected HFFs; type: cell-based, human; conditions: non-infected cells, 30 μM, 24 h and 72 h
Procedure: as §5

[9] = system: HCMV in high density and low density HFFs; experiment: Effect of cell density on anti-HCMV activity (pp28 luciferase); type: cell-based, human cytomegalovirus
Procedure: as §3

O=C(O)C1CCN(CCOc2ccc([C@H]3CC[C@]4(CC3)OO[C@]3(O4)C4CC5CC(C4)CC3C5)cc2)CC1 [OZ721]
Selectivity index (SI) [1]: 7.89 ± 0.35 | EC50 [1]: 5.75 ± 0.74 µM | CC50 at 3 days (MTT cell viability assay): 45.5 ± 6.82 µM

C[C@H]1[C@H](OC(=O)CCC(=O)O)O[C@@H]2O[C@@]3(C)CC[C@H]4[C@H](C)CC[C@@H]1[C@@]24OO3 [AS, Artesunate, reference compound]
Cell-density dependence of anti-HCMV activity (reported) [2]: cell-density dependent | Timing of anti-HCMV activity (pp28-luciferase HCMV): lost anti-HCMV activity when added after 24 h post infection | Cell cycle effect (reported) (non-infected HFFs [3]): arrest cell cycle in early G1 | Combination effect with GCV against HCMV [4]: synergistic activity with GCV

OC1CCN(CCOc2ccc([C@H]3CC[C@]4(CC3)OO[C@]3(O4)C4CC5CC(C4)CC3C5)cc2)CC1 [OZ513b]
Selectivity index (SI) [1]: 3.14 ± 0.20 | EC50 [1]: 15.7 ± 0.87 µM | CC50 at 3 days (MTT cell viability assay): 49.4 ± 3.67 µM

CC(C)(N)CNC(=O)C[C@H]1CC[C@]2(CC1)OO[C@]1(O2)C2CC3CC(C2)CC1C3 [OZ277, arterolane, reference compound]
Selectivity index (SI) [1]: 1.98 ± 0.09 | EC50 [1]: 17.1 ± 1.31 µM | CC50 at 3 days (MTT cell viability assay): 33.7 ± 1 µM

c1cc([C@H]2CC[C@]3(CC2)OO[C@]2(O3)C3CC4CC(C3)CC2C4)ccc1OCCN1CCOCC1 [OZ439, artefenomel]
EC50 [1]: 13.2 ± 1.27 µM

Nc1nc(O)c2ncn(COC(CO)CO)c2n1 [GCV, ganciclovir, reference compound]
Luciferase expression from UL99 (pp28) late promoter [5]: almost completely inhibited | Expression level of CDKs, pRb and E2F1 [6]: did not exhibit any effects on pRb/CDKs expression

O=C(O)P(=O)(O)O [foscarnet]
Luciferase expression from UL99 (pp28) late promoter [5]: almost completely inhibited

O=C(O)COc1ccc([C@H]2CC[C@]3(CC2)OO[C@]2(O3)C3CC4CC(C3)CC2C4)cc1 [OZ418]
Inhibition of GCV-resistant strain (GCV-resistant CMV strain): inhibited | EC50 (HCMV TB40 strain): 8.53 ± 0.09 µM | Timing of anti-HCMV activity (pp28-luciferase HCMV): early-late inhibitor of HCMV | Expression of CDKs, pRB and E2F1 [7]: unchanged; also recorded: did not decrease the expression of pRb or any of the tested CDKs | Selectivity index (SI) [1]: 13.06 ± 0.48 | EC50 [1]: 9.8 ± 0.25 µM | Inhibition of HCMV entry (HCMV entry): did not inhibit HCMV entry | Expression level of CDKs, pRb and E2F1 [6]: reduced | MCMV inhibition compared to AS (MCMV; OZ418 once daily vs AS orally twice daily, FIG. 5 D-F): more effective in MCMV inhibition | MCMV replication in organs (MCMV; salivary gland, liver and spleen, day 14 after infection, OZ418 1, 3 or 10 mg/kg orally once daily): effectively inhibits mouse CMV replication; also recorded: dose response was observed | Combination effect with GCV against HCMV [4]: synergistic activity with GCV | Cell cycle progression (HCMV-infected HFFs): delayed cell cycle progression | Cell cycle progression (non-infected HFFs [8]): did not influence cell cycle progression | HCMV inhibition in high-density HFFs ([9]; high-density HFFs, FIG. 8A): effectively inhibited HCMV | Cell-density dependence of anti-HCMV activity ([9]; low density and high density human fibroblast cells): cell-density dependent | Activity against HCMV in low-density HFFs ([9]; low-density HFFs, FIG. 8A): significantly reduced | CC50 at 3 days (MTT cell viability assay): 128 ± 8 µM

From patent US11246854B2, “Ozonides for treating or preventing virus infections” (THE JOHNS HOPKINS UNIVERSITY, priority 2017, dated 2022)
